Assay results from ChEMBL document CHEMBL1806393, “Cytotoxic oxasqualenoids from the red alga Laurencia viridis” (Eur J Med Chem, 2011).
The source made the active and inactive calls. The rule behind the calls is not given here.

How the values were obtained:
[1] = Solubility of the compound in water; type: physicochemical; conditions: buffer
[2] = Cytotoxicity against human MM144 cells assessed as inhibition of cell proliferation after 72 hrs by XTT assay; type: functional, cell-based
Jurkat [3] = assay: Cytotoxicity against human Jurkat cells assessed as inhibition of cell proliferation after 72 hrs by XTT assay; type: functional, cell-based
HeLa = assay: Cytotoxicity against human HeLa cells assessed as inhibition of cell proliferation after 72 hrs by XTT assay; type: functional, cell-based
[4] = Cytotoxicity against human CADO-ES1 cells assessed as inhibition of cell proliferation after 72 hrs by XTT assay; type: functional, cell-based; conditions: CADO-ES1, 72 h
[5] = Inhibition of […] using p-nitrophenyl phosphate as substrate at <100 uM by UV/visible absorption spectroscopic analysis
Jurkat [6] = assay: Induction of apoptosis in human Jurkat cells assessed as DNA breakdown in sub-G1 phase at 20 uM after 24 to 72 hrs using propidium iodide staining by flow cytometry; type: functional, cell-based
Jurkat [7] = assay: Cell cycle arrest in human Jurkat cells assessed as increase in apoptotic cells at sub-G1 phase at 20 uM after 72 hrs using propidium iodide staining by flow cytometry; type: functional, cell-based

SMILES | solubility [1] | IC50 [2] | IC50 (Jurkat [3]) | IC50 (HeLa) | IC50 [4] | inhibition [5] | Activity (Jurkat [6]) | Activity (Jurkat [7])
CC(C)(O)[C@H]1CC[C@](C)([C@@H](O)CC[C@@](O)(CO)C(=O)CC[C@H]2O[C@@H]([C@]3(C)CC[C@@H](Br)C(C)(C)O3)CC[C@]2(C)O)O1 [PRETHYRSENOL A] | Insoluble | 10.2 µM | 8.15 µM | 29 µM | 14.5 µM | inactive | – | –
C=C(CC[C@H](OS(=O)(=O)O)[C@@]1(C)CC[C@H](C(C)(C)O)O1)[C@H]1CC[C@H]2O[C@@H]([C@]3(C)CC[C@@H](Br)C(C)(C)O3)CC[C@]2(C)O1 | Insoluble | 18 µM | 12 µM | 33 µM | 27 µM | inactive | Active | Active
CC(C)(O)[C@H]1CC[C@](C)([C@@H](O)CC[C@@H](CO)C2=CC[C@H]3O[C@@H]([C@]4(C)CC[C@@H](Br)C(C)(C)O4)CC[C@]3(C)O2)O1 | Insoluble | 7.3 µM | 7.55 µM | 23 µM | 16.5 µM | inactive | – | –
CC(C)(O)[C@H]1CC[C@](C)([C@H](CCC(O)(CO)[C@H]2CC[C@H]3O[C@@H]([C@]4(C)CC[C@@H](Br)C(C)(C)O4)CC[C@]3(C)O2)OS(=O)(=O)O)O1 (stereo partly drawn) | Insoluble | 13.5 µM | 6.9 µM | 27.5 µM | 11 µM | inactive | – | –
C=C(CC[C@H](O)[C@@]1(C)CC[C@H](C(C)(C)O)O1)[C@H]1CC[C@H]2O[C@@H]([C@]3(C)CC[C@@H](Br)C(C)(C)O3)CC[C@]2(C)O1 [DEHYDROTHYRSIFEROL] | Insoluble | 21.5 µM | 13.5 µM | 34.5 µM | 12 µM | inactive | Active | Active
CC(C)(O)[C@H]1CC[C@](C)([C@@H](O)CC[C@@](O)(CO)C2=CC[C@H]3O[C@@H]([C@]4(C)CC[C@@H](Br)C(C)(C)O4)CC[C@]3(C)O2)O1 | – | – | – | – | – | inactive | – | –
CC(C)(O)[C@H]1CC[C@](C)([C@@H](O)CC[C@@](O)(CO)C(=O)[C@H](O)C[C@H]2O[C@@H]([C@]3(C)CC[C@@H](Br)C(C)(C)O3)CC[C@]2(C)O)O1 | Insoluble | 15.5 µM | 7.2 µM | 26 µM | 3.1 µM | inactive | – | –
CC(C)(O)[C@H]1CC[C@](C)([C@H](CCC(O)(COS(=O)(=O)O)[C@H]2CC[C@H]3O[C@@H]([C@]4(C)CC[C@@H](Br)C(C)(C)O4)CC[C@]3(C)O2)OS(=O)(=O)O)O1 (stereo partly drawn) | Insoluble | 31.5 µM | 8.6 µM | 35.5 µM | 17 µM | inactive | – | –
CC(C)(O)[C@H]1CC[C@](C)([C@@H](O)CCC(O)(CO)[C@H]2CC[C@H]3O[C@@H]([C@]4(C)CC[C@@H](Br)C(C)(C)O4)CC[C@]3(C)O2)O1 (stereo partly drawn) | Insoluble | 21 µM | 4.6 µM | 24 µM | 18 µM | inactive | – | –
